Measurements reported in patent US20140349989A1, “COMPOUNDS AND THERAPEUTIC USES THEREOF” (Alzheimer's Institute of America, priority 2011, published 2014).
Like-named read-outs stand apart in the source and are kept apart here.

Assay: Cytotoxicity Assay (HCT116, CellTiter-Glo)
Assay type: cell-based
Details: human
Protocol: HCT116 cells were seeded in 96 well plates (Greiner Bio-One, Monroe, N.C.) and allowed to settle overnight. Test compound dissolved in dimethyl sulfoxide (DMSO) was added and drug incubation proceeded for 72 hours. When applicable, a 1000× solution of nicotinic acid (NA; Sigma-Aldrich, St. Louis, Mo.) dissolved in water was generated, and 1×NA (10 μM final concentration) was added at the same time as the test compound. After 72 hour, 50 μL of CellTiter-Glo Luminescent Cell Viability Assay reagent (Promega Corporation, Madison, Wis.) was added to cells in 200 μL of cellular media. After a proscribed incubation period, luminescence was measured using a TopCount NXT plate reader (PerkinElmer, Waltham, Mass.).

[1] = HCT116 cells, 72 hours drug incubation, CellTiter-Glo luminescence, read-out: HCT116 cell cytotoxicity IC50

Structure (SMILES): O=C(NCc1cccnc1)Nc1ccc(-n2cc(-c3ccccc3OCCCN3CCOCC3)cn2)cc1 [Compound 30, 1-[4-(4-{2-[3-(Morpholin-4-yl)propoxy]phenyl}-1H-pyrazol-1-yl)phenyl]-3-(pyridin-3-ylmethyl)urea]
- IC50 at 72 h [1]: < 100 nM

Structure (SMILES): O=C(NCCCCCn1cc(C(=O)N2CCC(N3CCCCC3)CC2)c2ccccc21)NCc1cccnc1 [Compound 31, 1-{5-[3-(1,4′-Bipiperidin-1′-yl-carbonyl)-1H-indol-1-yl]pentyl}-3-(pyridin-3-ylmethyl)urea]
- IC50 at 72 h [1]: < 100 nM

Structure (SMILES): O=C(NCCCCCn1cc(C(=O)N2CCC(N3CCC(F)(F)CC3)CC2)c2ccccc21)NCc1cccnc1 [Compound 32, 1-(5-{3-[(4,4-Difluoro-1,4′-bipiperidin-1′-yl)carbonyl]-1H-indol-1-yl}pentyl)-3-(pyridin-3-ylmethyl)urea]
- IC50 at 72 h [1]: < 100 nM

Structure (SMILES): O=C(NCc1cccnc1)N[C@H]1CC[C@@H](n2cc(C(=O)N3CCN(C4CCCCC4)CC3)c3ccccc32)CC1 [Compound 34, 1-(cis-4-{3-[(4-Cyclohexyl-piperazin-1-yl)carbonyl]-1H-indol-1-yl}cyclohexyl)-3-(pyridin-3-ylmethyl)urea]
- IC50 at 72 h [1]: ≥ 100 nM

Structure (SMILES): O=C(NCCCn1cc(C(=O)N2CCC(N3CCCCC3)CC2)c2ccccc21)NCc1cccnc1 [Compound 36, 1-{3-[3-(1,4′-Bipiperidin-1′-ylcarbonyl)-1H-indol-1-yl]propyl}-3-(pyridin-3-ylmethyl)urea]
- IC50 at 72 h [1]: ≥ 100 nM

Structure (SMILES): O=C(NCc1cccnc1)N[C@H]1CC[C@H](n2cc(C(=O)N3CCN(C4CCCCC4)CC3)c3ccccc32)CC1 [Compound 37, 1-(trans-4-{3-[(4-Cyclohexyl-piperazin-1-yl)carbonyl]-1H-indol-1-yl}cyclohexyl)-3-(pyridin-3-ylmethyl)urea]
- IC50 at 72 h [1]: < 100 nM

Structure (SMILES): O=C(NCc1cccnc1)Nc1ccc(-n2cc(CCN3CC[C@@H](F)C3)c3ccccc32)cc1 [Compound 38, 1-[4-(3-{2-[(3R)-3-Fluoropyrrolidin-1-yl]ethyl}-1H-indol-1-yl)phenyl]-3-(pyridin-3-ylmethyl)urea]
- IC50 at 72 h [1]: < 100 nM

Structure (SMILES): O=C(NCCCCC(=O)c1cn(C2CCN(CCF)CC2)c2ccccc12)NCc1cccnc1 [Compound 39]
- IC50 at 72 h [1]: < 100 nM

Structure (SMILES): O=C(NCc1cccnc1)Nc1ccc(-n2cc(C3CCN(CC(F)F)CC3)c3ccccc32)cc1 [Compound 40, 1-(4-{3-[1-(2,2-Difluoroethyl)piperidin-4-yl]-1H-indol-1-yl}phenyl)-3-(pyridin-3-ylmethyl)urea]
- IC50 at 72 h [1]: < 100 nM

Structure (SMILES): CC(C)(C)OC(=O)N1CCC(n2cc(C#CCCCNC(=O)NCc3cccnc3)c3ccccc32)CC1 [Compound 41, tert-Butyl 4-[3-(5-{[(pyridin-3-ylmethyl)carbamoyl]ami-no}pent-1-yn-1-yl)-1H-indol-1-yl]piperidine-1-carboxylate]
- IC50 at 72 h (HCT116 cell cytotoxicity IC50): ≥ 100 nM

Structure (SMILES): O=C(NCc1cccnc1)Nc1ccc(-n2nc(C#CCN3CCOCC3)c3ccccc32)cc1 [Compound 42, 1-(4-{3-[3-(Morpholin-4-yl)prop-1-yn-1-yl]-1H-indazol-1-yl}phenyl)-3-(pyridin-3-ylmethyl)urea]
- IC50 at 72 h (HCT116 cell cytotoxicity IC50): < 100 nM

Structure (SMILES): O=C(NCc1cccnc1)Nc1ccc(-c2cn(S(=O)(=O)c3cccnc3)c3ccccc23)cc1 [Compound 43, 1-(Pyridin-3-ylmethyl)-3-{4-[1-(pyridin-3-ylsulfonyl)-1H-indol-3-yl]phenyl} urea]
- IC50 at 72 h (HCT116 cell cytotoxicity IC50): < 100 nM

Structure (SMILES): Nc1nn(-c2ccc(NC(=O)NCc3cccnc3)cc2)c2ccccc12 [Compound 44, 1-[4-(3-aminoindazol-1-yl)phenyl]-3-(3-pyridylmethyl)urea]
- IC50 at 72 h (HCT116 cell cytotoxicity IC50): ≥ 100 nM

Structure (SMILES): CCOC(=O)c1cn(CCCCNC(=O)NCc2cccnc2)c2ccccc12 [Compound 45, Ethyl 1-(4-{[(pyridin-3-ylmethyl)carbamoyl]amino}butyl)-1H-indole-3-carboxylate]
- IC50 at 72 h [1]: < 100 nM

Structure (SMILES): Cc1c(Cc2ccccc2)c(C(=O)N2CCC(N3CCCCC3)CC2)nn1-c1ccc(NC(=O)NCc2cccnc2)cc1 [Compound 46, 1-{4-[4-Benzyl-3-(1,4′-bipiperidin-1′-ylcarbonyl)-5-methyl-1H-pyrazol-1-yl]phenyl}-3-(pyridin-3-ylmethyl)urea]
- IC50 at 72 h [1]: < 100 nM

Structure (SMILES): Cc1c(C(=O)N2CCC(n3ccnc3)CC2)c2ccccc2n1-c1ccc(NC(=O)NCc2cccnc2)cc1 [Compound 48, 1-[4-(3-{[4-(1H-Imidazol-1-yl)piperidin-1-yl]carbonyl}-2-methyl-1H-indol-1-yl)phenyl]-3-(pyridin-3-ylmethyl)urea]
- IC50 at 72 h (HCT116 cell cytotoxicity IC50): ≥ 100 nM

Structure (SMILES): O=C(NCc1cccnc1)Nc1ccc(-n2cc(CCN3CCCCC3)c3ccccc32)cc1 [Compound 49, 1-(4-{3-[2-(Piperidin-1-yl)ethyl]-1H-indol-1-yl}phenyl)-3-(pyridin-3-ylmethyl)urea]
- IC50 at 72 h (HCT116 cell cytotoxicity IC50): < 100 nM

Structure (SMILES): Cc1c(-c2ccccc2)c(C(=O)NCCCN2CCCCC2)nn1-c1ccc(NC(=O)NCc2cccnc2)cc1 [Compound 50, 5-Methyl-4-phenyl-N-[3-(piperidin-1-yl)propyl]-1-(4-{[(pyridin-3-ylmethyl)carbamoyl]ami-no}phenyl)-1H-pyrazole-3-carboxamide]
- IC50 at 72 h (HCT116 cell cytotoxicity IC50): < 100 nM

Structure (SMILES): O=C(NCc1cccnc1)Nc1ccc2c(c1)c(C(=O)NCCCN1CCOCC1)cn2Cc1ccccc1 [Compound 51, 1-Benzyl-N-[3-(morpholin-4-yl)propyl]-5-{[(pyridin-3-ylmethyl)carbamoyl]ami-no}-1H-indole-3-carboxamide]
- IC50 at 72 h [1]: ≥ 100 nM

Structure (SMILES): O=C(NCc1cccnc1)Nc1ccc(-n2cc(-c3nccn3CCN3CCCCC3)c3ccccc32)cc1 [Compound 52, 1-[4-(3-{1-[2-(Piperidin-1-yl)ethyl]-1H-imidazol-2-yl}-1H-indol-1-yl)phenyl]-3-(pyridin-3-ylmethyl)urea]
- IC50 at 72 h [1]: < 100 nM

Structure (SMILES): C[C@@H]1CN(CCc2cn(-c3ccc(NC(=O)NCc4cccnc4)cc3)c3ccccc23)C[C@H](C)O1 [Compound 53, 1-[4-(3-{2-[(2R,6S)-2,6-Dimethyl-morpholin-4-yl]ethyl}-1H-indol-1-yl)phenyl]-3-(pyridin-3-ylmethyl)urea]
- IC50 at 72 h [1]: < 100 nM

Structure (SMILES): COc1cccc(-c2cn(-c3ccc(NC(=O)NCc4cccnc4)cc3)nc2C(=O)NCCCN2CCCCC2)c1 [Compound 54, 4-(3-Methoxyphenyl)-N-[3-(piperidin-1-yl)propyl]-1-(4-{[(pyridin-3-ylmethyl)carbamoyl]ami-no}phenyl)-1H-pyrazole-3-carboxamide]
- IC50 at 72 h [1]: < 100 nM

Structure (SMILES): O=C(NCc1ccc(Cl)nc1)Nc1ccc(-n2nc(N3CCN(C4CCCC4)CC3)c3ccccc32)cc1 [Compound 55, 1-[(6-Chloro-pyridin-3-yl)methyl]-3-{4-[3-(4-cyclopentyl-piperazin-1-yl)-1H-indazol-1-yl]phenyl}urea]
- IC50 at 72 h (HCT116 cell cytotoxicity IC50): ≥ 100 nM

Structure (SMILES): O=C(NCCCCn1cc(C(=O)N2CCC(N3CCCCC3)CC2)c2ccccc21)NCc1cccnc1 [Compound 57, 1-{4-[3-(1,4′-Bipiperidin-1′-yl-carbonyl)-1H-indol-1-yl]butyl}-3-(pyridin-3-ylmethyl) urea]
- IC50 at 72 h [1]: < 100 nM

Structure (SMILES): CC(=O)N1CCC(n2cc(C(=O)CCCCNC(=O)NCc3cccnc3)c3ccccc32)CC1 [Compound 58, 1-{5-[1-(1-Acetylpiperidin-4-yl)-1H-indol-3-yl]-5-oxo-pentyl}-3-(pyridin-3-ylmethyl)urea]
- IC50 at 72 h [1]: ≥ 100 nM

Structure (SMILES): O=C(NCCCn1cc(C(=O)NCCCN2CCCC2)c2ccccc21)NCc1cccnc1 [Compound 59, 1-(3-{[(Pyridin-3-ylmethyl)carbamoyl]amino}propyl)-N-[3-(pyrrolidin-1-yl)propyl]-1H-indole-3-carboxamide]
- IC50 at 72 h [1]: ≥ 100 nM

Structure (SMILES): O=C(NCc1cccnc1)Nc1ccc(-n2cc(-c3nccn3CCC3CCNCC3)c3ccccc32)cc1 [Compound 60, 1-[4-(3-{1-[2-(Piperidin-4-yl)ethyl]-1H-imidazol-2-yl}-1H-indol-1-yl)phenyl]-3-(pyridin-3-ylmethyl)urea]
- IC50 at 72 h [1]: ≥ 100 nM

Structure (SMILES): O=C(NCc1cccnc1)Nc1ccc(-n2nc(N3CCC(CN4CCOCC4)CC3)c3ccccc32)cc1 [Compound 62, 1-(4-{3-[4-(Morpholin-4-ylmethyl)piperidin-1-yl]-1H-indazol-1-yl}phenyl)-3-(pyridin-3-ylmethyl)urea]
- IC50 at 72 h (HCT116 cell cytotoxicity IC50): < 100 nM

Structure (SMILES): O=C(NCc1cncs1)Nc1ccc(-n2cc(CCN3CCOCC3)c3ccccc32)cc1 [Compound 63, 1-(4-{3-[2-(Morpholin-4-yl)ethyl]-1H-indol-1-yl}phenyl)-3-(1,3-thiazol-5-ylmethyl) urea]
- IC50 at 72 h (HCT116 cell cytotoxicity IC50): ≥ 100 nM

Structure (SMILES): CN1CCN(C2CCN(C(=O)c3cn(CCCCCNC(=O)NCc4cccnc4)c4ccccc34)CC2)CC1 [Compound 64, 1-[5-(3-{[4-(4-Methylpiperazin-1-yl)piperidin-1-yl]carbonyl}-1H-indol-1-yl)pentyl]-3-(pyridin-3-ylmethyl) urea]
- IC50 at 72 h [1]: < 100 nM

Structure (SMILES): CCOC(=O)c1cn(CCCCCNC(=O)NCc2cccnc2)c2ccccc12 [Compound 65, Ethyl 1-(5-{[(pyridin-3-ylmethyl)carbamoyl]amino}pentyl)-1H-indole-3-carboxylate]
- IC50 at 72 h [1]: < 100 nM

Structure (SMILES): O=C(NCc1cccnc1)Nc1ccc(N2CC3(CCN(C(=O)OCc4ccccc4)CC3)c3ccccc32)cc1 [Compound 66, Benzyl 1-(4-{[(pyridin-3-ylmethyl)carbamoyl]ami-no}phenyl)-1,2-dihydro-1′H-spiro[indole-3,4′-piperidine]-1′-carboxyylate]
- IC50 at 72 h [1]: < 100 nM

Structure (SMILES): CC(C)(CCCCNC(=O)NCc1cccnc1)n1cc(C(=O)N2CCN(C3CCCCC3)CC2)c2ccccc21 [Compound 67, 1-(5-{3-[(4-Cyclohexyl-piperazin-1-yl)carbonyl]-1H-indol-1-yl}-5-methylhexyl)-3-(pyridin-3-ylmethyl)urea]
- IC50 at 72 h [1]: < 100 nM

Structure (SMILES): O=C(NCc1cccnc1)Nc1ccc2c(C(=O)N3CCC(N4CCCCC4)CC3)cn(Cc3ccccc3)c2c1 [Compound 68, 1-[1-Benzyl-3-(1,4′-bipiperidin-1′-yl-carbonyl)-1H-indol-6-yl]-3-(pyridin-3-ylmethyl)urea]
- IC50 at 72 h [1]: ≥ 100 nM
